Ends that are not written are not given here.
Experiments:
TLR4 = target: T1, TLR4 (Mus musculus, UniProt Q9QUK6); assay: Cytokine secretion (ELISA) in LPS-stimulated RAW264.7 cells; format: cell-based; details: FIG. 2E
T1 construct: endogenous in cells; host or cells: RAW264.7
T1 sequence (Q9QUK6 26-835): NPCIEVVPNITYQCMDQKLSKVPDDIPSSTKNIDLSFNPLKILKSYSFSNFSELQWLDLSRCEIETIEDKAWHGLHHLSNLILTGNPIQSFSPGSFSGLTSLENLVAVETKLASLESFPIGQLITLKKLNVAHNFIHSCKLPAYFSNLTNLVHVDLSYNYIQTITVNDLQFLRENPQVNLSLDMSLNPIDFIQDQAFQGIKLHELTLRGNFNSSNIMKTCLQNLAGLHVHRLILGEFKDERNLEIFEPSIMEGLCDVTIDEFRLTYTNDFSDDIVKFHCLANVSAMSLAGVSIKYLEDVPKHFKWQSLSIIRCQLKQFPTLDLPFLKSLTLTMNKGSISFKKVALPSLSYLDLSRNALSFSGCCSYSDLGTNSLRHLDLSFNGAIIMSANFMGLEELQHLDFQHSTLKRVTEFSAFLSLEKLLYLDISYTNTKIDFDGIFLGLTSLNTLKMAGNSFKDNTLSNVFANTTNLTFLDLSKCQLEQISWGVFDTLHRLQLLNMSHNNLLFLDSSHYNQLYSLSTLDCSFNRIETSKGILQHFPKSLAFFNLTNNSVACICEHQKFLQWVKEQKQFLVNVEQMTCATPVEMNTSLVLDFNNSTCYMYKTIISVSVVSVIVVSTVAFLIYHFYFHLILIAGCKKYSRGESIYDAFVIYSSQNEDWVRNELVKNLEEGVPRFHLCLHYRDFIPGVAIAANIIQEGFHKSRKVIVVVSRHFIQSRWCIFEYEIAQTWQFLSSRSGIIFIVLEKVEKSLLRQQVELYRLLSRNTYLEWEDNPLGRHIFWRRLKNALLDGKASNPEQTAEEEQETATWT
T1 sequence (Q9JHF9 19-160 partner): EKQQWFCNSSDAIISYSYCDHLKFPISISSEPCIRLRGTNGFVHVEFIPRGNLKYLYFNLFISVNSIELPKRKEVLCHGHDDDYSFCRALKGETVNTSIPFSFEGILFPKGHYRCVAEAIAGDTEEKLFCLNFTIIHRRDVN
Protocol: THP-1-derived macrophages and RAW264.7 cells were dispensed into 96-well plates (BD Biosciences) at a density of 2×10^5 cells/well and cultured overnight. After 24 hours of treatment, IL-6 secretion was analyzed using Mouse IL-6 ELISA MAX™ Deluxe (BioLegend, San Diego, Calif., USA), and TNF-α production was evaluated using the Mouse TNF alpha ELISA Ready-SET-GO!® kit (eBioscience, San Diego, Calif., USA). Then, the plate was analyzed at each wavelength using a microplate spectrophotometer system (Molecular Devices).

HEK-Blue™ hTLR4 cells = assay: Cell viability assay (MTT/MTS), HEK-BLUE hTLR4 cells; format: cell-based, human; details: FIG. 2A
Protocol: (§1) HEK-BLUE™ hTLR4 cells were dispensed at a density of 5×10^4 cells/well, and RAW264.7 cells and THP-1 cells were dispensed thereinto at a density of 2×10^5 cells/well. All cells were cultured overnight in 96-well plates (BD Biosciences, San Jose, Calif., USA). Cell viability was determined using colorimetric […] (MTT) assay (Sigma-Aldrich) and/or MTS (3-(4,5-dimethylthiazol-2-yl)-5-(3-carboxymethoxyphenyl)-2-(4-sulfophenyl)-2H-tetrazolium) (Promega Madison, Wis., USA), which was performed as described previously (Kwon, H. K. et al., Toxicological sciences: an official journal of the Society of Toxicology 148, 204-219 (2015)).

[1] = system: IMQ-induced psoriasis in C57BL/6 mice; assay: Imiquimod-induced psoriasis mouse model; format: in vivo; details: FIG. 5D
Protocol: 6-7 week old C57BL/6 mice were purchased from Orient Bio Inc. (Seongnam, Korea). The mice were housed under specific pathogen-free conditions and provided ad libitum with a standard laboratory diet (STD). All the animal experiments were approved by the Institutional Animal Care and Use Committee (IACUC) of Ajou University (Approval No. 2017-0002). 62.5 mg of ALDARA™ cream (including 5% IMQ; Aldara, 3M Pharmaceutical LLC.) was applied for five consecutive days, resulting in symptoms similar to psoriasis. The normal group was not treated with IMQ but only injected with PBS. […] Factors such as erythema, scaling, wrinkles, and thickening were independently scored from 0 to 4: 0, none; 1, a little; 2, middle; 3, significant; 4, very prominent. Erythema, scaling, and thickness were scored under the close supervision of an experienced researcher. […]
A skin sample obtained from the dorsal lesion of each mouse was fixed in 4% paraformaldehyde solution, embedded in paraffin, and sectioned at a thickness of 7 μm on a glass slide. […] The thickness of the skin was measured using a Leica DMi8 fluorescence microscope which utilizes a Leica LAS X Hardware Configurator. IMQ-mediated inflammation in the skin was evaluated using a mouse-specific HRC/DAB Detection IHC Kit (Abcam, Cat. No. AB64259) with primary antibodies recognizing CD68, CD4, and IL-17. […]

RAW264.7 cells = assay: Cell viability assay (MTT/MTS), RAW264.7 cells; format: cell-based, mouse; details: concentration of 50 μM or below; FIG. 2B
Protocol: as §1

THP-1 cells = assay: Cell viability assay (MTT/MTS), THP-1 cells; format: cell-based, human; details: FIG. 2C
Protocol: as §1

Row | Substance | inhibitory effect on LPS-stimulated RAW 264.7 cells (TLR4) | toxicity in HEK-Blue hTLR4 cells (HEK-Blue™ hTLR4 cells) | body weight [1] | cytotoxic effect in RAW264.7 cells (RAW264.7 cells) | toxicity in THP-1 cells (THP-1 cells)
1 | PFVYLI (cell penetrating peptide) | did not show any inhibitory effect |  |  |  | 
2 | RQIKIWFQNRRMKWKKPWCKYQMLQALT [MIP2] |  | do not show toxicity | no significant difference compared to PBS- and MTX-treated mice | absence of a cytotoxic effect | does not show toxicity
